The source of these data is patent US12435087B2, “Modulators of DCN-1 and methods of use thereof” (Cellarity, Inc., priority 2023, dated 2025).

Read-outs that look alike come from different tables or passages of the source.

This assay concerns the target DCN1 (DCUND1) protein PONY domain (Homo sapiens (Human), UniProt Q96GG9). As to the kind of experiment: TR-FRET assay (binding to DCN-1, displacement of FAM-labeled probe).
Description: (§1) The TR-FRET assay was designed following the Scott et al. protocol (Scott et al., Nat Chem Biol. 2017 August; 13(8): 850-857. doi:10.1038/nchembio.2386). The recombinant form of the DCN1 (DCUND1) protein PONY domain was produced using an E. coli expression system at Viva Biotech (China). The DCN1 protein was biotinylated (EZ sulfo-NHS-LC-biotin; Thermofisher) for labeling with streptavidin terbium (Tb) cryptate in the reaction. The probe was changed to a non-covalent DCN1 inhibitor labeled with carboxyfluorescein (FAM; Zhou et al., Nat Commun. 2017; 8: 1150. doi: 10.1038/s41467-017-01243-7). Buffer conditions were modified to enhance protein stability by exchanging Tween20 for TritonX and increasing NaCl to 200 mM. The compounds were screened against 5 nM DCN1 and 20 nM FAM-probe or 0.31 nM DCN1 and 900 nM total probe (100 nM FAM-labeled plus 800 nM unlabeled). The TR-FRET ratio between Tb-DCN1 and the FAM-labeled probe was measured in a 384-well opti-plate (Perkin Elmer) using a plate reader (BMG) at 1, 5, and 24 hrs after treatment with compound (final DMSO concentration of 0.1%). The ratio was normalized to the high (DCN1 and FAM-probe) and low (DCN1 and no probe) controls for a readout of % activity (=100*(x−low)/(high−low).
A TR-FRET assay was performed to evaluate the ability of the compounds to bind the DCN-1 protein.
as §1, with “850-857. Doi: 10.1038/nchembio.2386).” for “850-857. doi:10.1038/nchembio.2386).”, “the DCNI” for “the DCN1”, “1150. Doi:” for “1150. doi:”, “0.1%).” for “0.1%). The ratio was normalized to the high (DCN1 and FAM-probe) and low (DCN1 and no probe) controls for a readout of % activity (=100*(x−low)/(high−low).”
Background: TR-FRET usually uses a lanthanide donor and a delayed reading to cut background.

Setting [1] is: 24 hr after treatment with compound, read-out: TR FRET IC50 24 hr.
Where [2] appears, read: TR FRET IC50 1 hr (nM), 1 hr after treatment with compound.
Where [3] appears, read: read-out: TR FRET IC50 1 hr, 1 hr after treatment with compound.

Chain of DCN1 (DCUND1) protein PONY domain (Q96GG9 60-248): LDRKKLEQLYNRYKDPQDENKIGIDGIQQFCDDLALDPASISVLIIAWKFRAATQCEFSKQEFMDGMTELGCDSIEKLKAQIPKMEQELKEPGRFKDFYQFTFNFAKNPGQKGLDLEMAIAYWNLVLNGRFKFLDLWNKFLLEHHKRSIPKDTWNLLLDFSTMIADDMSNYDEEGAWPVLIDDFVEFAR

With `CCN1C(=O)[C@H](NC(=O)c2cccc(C(F)(F)F)c2)[C@@H](c2cccc(NC(=O)C34CC3C4)c2)c2c(C)nn(-c3ccccc3)c21` (mixture of isomers) [Compound I-80], the IC50 lay in the range of 1000 to 3000 nM under setting [1] and 1000 to 3000 nM under setting [2].

`CCN1C(=O)[C@@H](NC(=O)c2cccc(C(F)(F)F)c2)[C@H](c2cccc(CNC(=O)C(F)Cl)c2)c2cnn(-c3ccccc3)c21` (mixture of isomers) [Compound I-100]: the IC50 reads like this: under setting [1], 1000 to 3000 nM; under setting [2], 1000 to 3000 nM.

As to `CCN1C(=O)[C@@H](NC(=O)c2cccc(C(F)(F)F)c2)[C@H](c2ccccc2CNC(=O)C(F)Cl)c2cnn(-c3ccccc3)c21` (mixture of isomers) [Compound I-105], the IC50 is, setting by setting: under setting [1], 1000 to 3000 nM; under setting [2], 1000 to 3000 nM.

`CCN1C(=O)[C@@H](NC(=O)c2cccc(C(F)(F)F)c2)[C@H](c2cccc(CNC(=O)C(C)Cl)c2)c2cnn(-c3ccccc3)c21` (mixture of isomers) [Compound I-112]: the IC50 was 1000 to 3000 nM under setting [1] and 1000 to 3000 nM under setting [2].

Regarding `CCN1C(=O)[C@@H](NC(=O)c2cccc(C(F)(F)F)c2)[C@H](c2ccccc2CNC(=O)C(C)Cl)c2cnn(-c3ccccc3)c21` (mixture of isomers) [Compound I-114], the IC50 under setting [1] lay in the range of 1000 to 3000 nM and the concentration for half-maximal inhibition (IC50) under setting [2] was in the range of 1000 to 3000 nM.

For the molecule `C=C(CN1C[C@@H]2C[C@H]1CO2)C(=O)NCc1cccc([C@@H]2c3cnn(-c4ccccc4)c3N(CC)C(=O)[C@H]2NC(=O)c2nccc(C(F)(F)F)n2)c1` (mixture of isomers) [Compound I-160], the IC50 by setting is: under setting [1], at most 200 nM; under setting [3], at most 200 nM.

For `CCN1C(=O)[C@@H](NC(=O)c2nccc(C(F)(F)F)n2)[C@H](c2cccc(C(=O)N3CCC[C@@H]3C#N)c2)c2cnn(-c3ccccc3)c21` (mixture of isomers) [Compound I-250], the concentration for half-maximal inhibition (IC50) is, setting by setting: under setting [1], 1000 to 3000 nM; under setting [2], 1000 to 3000 nM.

Take `C=C(CN1CCOCC1)C(=O)N[C@H](C)c1cccc([C@@H]2c3cnn(-c4ccccc4)c3N(CC)C(=O)[C@H]2NC(=O)c2nccc(C(F)(F)F)n2)c1` (mixture of isomers) [Compound I-281]: the half-inhibitory concentration (IC50) is, setting by setting: under setting [1], 200 to 1000 nM; under setting [2], 1000 to 3000 nM.

Turning to `C=C(CN1CCN(C2COC2)CC1)C(=O)N[C@H](C)c1cccc([C@@H]2c3cnn(-c4ccccc4)c3N(CC)C(=O)[C@H]2NC(=O)c2nccc(C(F)(F)F)n2)c1` (mixture of isomers) [Compound I-366], the concentration for half-maximal inhibition (IC50) runs as follows: under setting [1], 1000 to 3000 nM; under setting [2], 1000 to 3000 nM.

In the case of `CCN1C(=O)[C@@H](NC(=O)c2nccc(C(F)(F)F)n2)[C@H](c2cccc(C(=O)N3CC(F)(F)C[C@H]3C#N)c2)c2cnn(-c3ccccc3)c21` (mixture of isomers) [Compound I-379, N-(rac-(4R,5S)-4-(3-((S)-2-cyano-4,4-difluoropyrrolidine-1-carbonyl)phenyl)-7-ethyl-6-oxo-1-phenyl-4,5,6,7-tetrahydro-1H-pyrazolo[3,4-b]pyridin-5-yl)-4-(trifluoromethyl)pyrimidine-2-carboxamide], the concentration for half-maximal inhibition (IC50) under setting [1] fell in the range of 1000 to 3000 nM and the 50% inhibitory concentration (IC50) under setting [2] was in the range of 1000 to 3000 nM.

Turning to `C=C(CN1CCN(C2COC2)CC1)C(=O)N[C@@H](C)c1cccc([C@@H]2c3cnn(-c4ccccc4)c3N(CC)C(=O)[C@H]2NC(=O)c2nccc(C(F)(F)F)n2)c1` (mixture of isomers) [Compound I-380], the IC50 is, setting by setting: under setting [1], 1000 to 3000 nM; under setting [2], 1000 to 3000 nM.

For `C=C(CN(C)C1COC1)C(=O)Nc1cccc([C@H]2c3c(C)nn(-c4ccccc4)c3N(CC)C(=O)[C@@H]2NC(=O)c2cccc(C(F)(F)F)c2)c1` (racemic) [Compound I-3], the IC50 is, setting by setting: under setting [1], at most 200 nM; under setting [3], at most 200 nM.

In the case of `CCN1C(=O)[C@H](NC(=O)c2cccc(C(F)(F)F)c2)[C@@H](c2ccccc2N2CC=CC2=O)c2cnn(-c3ccccc3)c21` (racemic) [Compound I-21], the IC50 by setting is: under setting [1], above 3000 nM; under setting [2], above 3000 nM.

Take `CCN1C(=O)[C@H](NC(=O)c2cccc(C(F)(F)F)c2)[C@@H](c2ccccc2NC(C)=O)c2cnn(-c3ccccc3)c21` (racemic) [Compound I-26, rac-N-((4R,5S)-4-(2-acetamidophenyl)-7-ethyl-6-oxo-1-phenyl-4,5,6,7-tetrahydro-1H-pyrazolo[3,4-b]pyridin-5-yl)-3-(trifluoromethyl)benzamide]: the 50% inhibitory concentration (IC50) runs as follows: under setting [1], above 3000 nM; under setting [2], above 3000 nM.

For the molecule `CCN1C(=O)[C@@H](NC(=O)c2cccc(C(F)(F)F)c2)[C@H](c2cccc(CNC#N)c2)c2cnn(-c3ccccc3)c21` (racemic) [Compound I-29], the IC50 lay within 1000 to 3000 nM under setting [1] and 1000 to 3000 nM under setting [2].

Take `CCN1C(=O)[C@@H](NC(=O)c2cccc(C(F)(F)F)c2)[C@H](c2ccccc2CN(C)C#N)c2c(C)nn(-c3ccccc3)c21` (racemic) [Compound I-30]: the 50% inhibitory concentration (IC50) reads like this: under setting [1], 1000 to 3000 nM; under setting [2], 1000 to 3000 nM.

In the case of `CCN1C(=O)[C@@H](NC(=O)c2cccc(C(F)(F)F)c2)[C@H](c2ccccc2CNC#N)c2cnn(-c3ccccc3)c21` (racemic) [Compound I-31], the IC50 by setting is: under setting [1], 1000 to 3000 nM; under setting [2], 1000 to 3000 nM.

Take `CCN1C(=O)[C@H](NC(=O)c2cccc(C(F)(F)F)c2)[C@@H](c2cccc(NC(=O)C#CCN3CCOCC3)c2)c2c(C)nn(-c3ccccc3)c21` (racemic) [Compound I-35]: the 50% inhibitory concentration (IC50) runs as follows: under setting [1], 1000 to 3000 nM; under setting [2], 1000 to 3000 nM.

For `CCN1C(=O)[C@@H](NC(=O)c2cccc(C(F)(F)F)c2)[C@H](c2cncc(NC(=O)C3=CCC3)c2)c2cnn(-c3ccccc3)c21` (racemic) [Compound I-36], the IC50 fell in the range of 1000 to 3000 nM under setting [1] and 1000 to 3000 nM under setting [3].

As for `CCN1C(=O)[C@H](NC(=O)c2cccc(C(F)(F)F)c2)[C@@H](c2cccc(N(C)C(=O)/C=C/CN(C)C)c2)c2cnn(-c3ccccc3)c21` (racemic) [Compound I-39], the half-maximal inhibitory concentration (IC50) by setting is: under setting [1], 1000 to 3000 nM; under setting [2], 1000 to 3000 nM.

For the molecule `CCN1C(=O)[C@@H](NC(=O)c2cccc(C(F)(F)F)c2)[C@H](c2cccc(CN(C)C#N)c2)c2c(C)nn(-c3ccccc3)c21` (racemic) [Compound I-40], the half-maximal inhibitory concentration (IC50) under setting [1] was in the range of 1000 to 3000 nM and the IC50 under setting [2] fell in the range of 1000 to 3000 nM.

Turning to `C=C(CC(=O)OC)C(=O)Nc1cccc([C@@H]2c3c(C)nn(-c4ccccc4)c3N(CC)C(=O)[C@H]2NC(=O)c2cccc(C(F)(F)F)c2)c1` (racemic) [Compound I-41], the half-inhibitory concentration (IC50) fell in the range of 1000 to 3000 nM under setting [1] and 1000 to 3000 nM under setting [2].

On to `CCN1C(=O)[C@H](NC(=O)c2cccc(C(F)(F)F)c2)[C@@H](c2ccccc2NC(=O)C23CC2C3)c2cnn(-c3ccccc3)c21` (mixture of isomers) [Compound I-45, {N}-[2-[˜{rac}-(4˜{S},5˜{R})-7-ethyl-6-oxo-1-phenyl-5-[[3-(trifluoromethyl)benzoyl]amino]-4,5-dihydropyrazolo[3,4-b]pyridin-4-yl]phenyl]bicyclo[1.1.0]butane-1-carboxamide], for which the half-maximal inhibitory concentration (IC50) is, setting by setting: under setting [1], 1000 to 3000 nM; under setting [2], 1000 to 3000 nM.

As for `CCN1C(=O)[C@@H](NC(=O)c2cccc(C(F)(F)F)c2)[C@H](c2ccccc2CN(C)C#N)c2cnn(-c3ccccc3)c21` (racemic) [Compound I-49], the IC50 runs as follows: under setting [1], 1000 to 3000 nM; under setting [2], 1000 to 3000 nM.

In the case of `CCN1C(=O)[C@@H](NC(=O)c2cccc(C(F)(F)F)c2)[C@H](c2cccc(CNC(=O)/C=C/CN(C)C)c2)c2cnn(-c3ccccc3)c21` (racemic) [Compound I-53], the IC50 runs as follows: under setting [1], 1000 to 3000 nM; under setting [2], 1000 to 3000 nM.

In the case of `C=C(CN1CCOCC1)C(=O)Nc1cccc([C@@H]2c3c(C)nn(-c4ccccc4)c3N(CCO)C(=O)[C@@H]2NC(=O)c2cccc(C(F)(F)F)c2)c1` (racemic) [Compound I-55, rac-N-((4R,5R)-7-(2-hydroxyethyl)-3-methyl-4-(3-(2-(morpholinomethyl)acrylamido)phenyl)-6-oxo-1-phenyl-4,5,6,7-tetrahydro-1H-pyrazolo[3,4-b]pyridin-5-yl)-3-(trifluoromethyl)benzamide], the IC50 reads like this: under setting [1], 1000 to 3000 nM; under setting [2], 1000 to 3000 nM.

In the case of `CCN1C(=O)[C@@H](NC(=O)c2cccc(C(F)(F)F)c2)[C@H](c2cccc(NC(=O)/C=C/CN(C)C)c2F)c2cnn(-c3ccccc3)c21` (racemic) [Compound I-56], the IC50 under setting [1] is at most 200 nM and the IC50 under setting [2] was 200 to 1000 nM.

As a reminder, the IC50 is the midpoint of a concentration-inhibition curve.
